Source: patent EP1285920A1, “C10 Ester sustituted taxanes as antitumor agents” (Florida State University Research Foundation, Inc., priority 2001, dated 2003)
Marks after values point to notes of the source that are not given here.

Tests used:
blood cell populations = test: Effect of oral treatment on blood cell populations and body weight in the MX-1 study (Example 22); format: in vivo, nu/nu mice; design: neutrophil reduction: concentration or dose not given beside the values; conditions: for % Reduction (Monocytes) / % Reduction (Neutrophils): Day 4, vs vehicle; for % Reduction (Monocytes) / % Reduction (Neutrophils) / Monocytes (K/µL) / Neutrophils (K/µL) / Maximum Weight Loss (Day): mg/kg: 0499 80, 0550 73, 0611 113, 0748 200; for Monocytes (K/µL) / Neutrophils (K/µL): Day 4; for Monocytes (K/µL) / Neutrophils (K/µL) / Maximum Weight Loss (Day): single oral bolus Day 1; for Maximum Weight Loss (Day): body weight, day of maximum in parentheses in the cell
Experimental: (§1) Antitumor compounds were administered orally in a study to investigate whether such a formulation is efficacious against the MX-1 human breast carcinoma xenograft. Antitumor compound 0499 was formulated as Solution 1 in Example 6. Antitumor compound 0550 was formulated as Solution 2 in Example 6. Antitumor compound 0611 was formulated as Solution 3 in Example 6. Antitumor compound 0748 was formulated as Solution 4 in Example 6. Other antitumor compounds were formulated similarly. The compounds were prepared in a vehicle of 90% saline, 5% Cremophor, and 5% ethanol.
(§2) Female nu/nu mice (11-12 weeks of age; implanted subcutaneously with 1 mm^3 MX-1 human breast carcinoma fragments in the flank) were sorted into one control group (n=10) and four treatment (n=6) groups (group mean tumor size of 47-49 mg). The study was terminated on Day 63.
In addition to survival and tumor regression responses, the effect of treatment on blood cell populations was assessed. The major effect of these antitumor compounds on blood cell populations was a marked reduction in the neutrophil cell number. As well, monocyte depletion correlated fairly well with neutrophil reduction for each antitumor compound. […] There was a correlation between antitumor activity and reduced neutrophil count. In general, toxicity (as determined by neutrophil depletion) and weight loss correlated with efficacy. […] Importantly, the toxicities observed with the very efficacious antitumor compounds were manageable and reversible; neutrophil count and body weight rebounded from their low points in just a few days. Table 20 summarizes the weight reduction, neutrophil and monocyte measurements on Day 4, with tumor weight reduction calculated at Day 18: Table 20

[1] = test system: MX-1 human breast carcinoma; format: in vivo; conditions: for complete tumor regressions: six mice per group (0611: five evaluable), ended Day 63; for Toxic Deaths / Complete Response / Partial Response / Stable Disease: number of mice, mg/kg: 0499 80, 0550 73, 0611 113, 0748 200, 6 mice/group; for Complete Response / Partial Response / Stable Disease: Day 63; for % Reduction (Weight): po, 432 h
Experimental: as §1, §2

HCT116 = test: In Vitro cytotoxicity measured by the cell colony formation assay; format: cell-based, human; conditions: Homo sapiens, HCT-116; read-out: IN VITRO ID 50 HCT116
Summary of the method: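 Four hundred cells per dish in McCoy's 5a medium with 10% FBS were allowed to attach for 5 h at 37 °C. They were then exposed to compound for 72 h at 37 °C, added as a 10× stock made fresh in medium. After HBSS rinsing and refeeding, colonies were counted after 7 days.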

HCT116 carcinoma = conditions: number of 5 mice; i.v. qd x 1 at MTD, Day 60; mg/kg: Taxol 36 (split doses), 0503 72.6, 0536 49, 0663 159, 0670 123, 0687 159, 0706 108, 0908 159, 0947 76.9, 0951 72.6, 0983 72.6, 0999 49, 1003 49, 1011 108
Summary of the method: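 Mice bearing HCT116 tumours received a single i.v. maximum tolerated dose per compound, formulated in 5% ethanol, 5% Cremophor, 90% isotonic saline. Study ended on Day 60; complete response meant no palpable tumour at study end.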

A2780 ovarian carcinoma = conditions: number of mice; i.v. qd x 1 at estimated MTD (Taxol 24 mg/kg, Taxotere 70 mg/kg, 0983 72.6 mg/kg); 5 mice/group (Taxotere 6)
Experimental: Dosing was initiated on Day 1. […] Taxotere was given i.v. on a qd x 1 schedule at a dose of 70 mg/kg. […] The study was terminated on Day 60. Treatment groups are detailed in Table 7.

MX-1 carcinoma = conditions: number of 6 mice; i.v. qd x 1 at MTD, Day 60; mg/kg: Taxol 36 (split dose), 0503 72.6, 0536 49, 0663 159, 0670 123, 0687 159, 0706 108, 0908 159, 0947 76.9, 0951 72.6, 0983 67.4, 0999 49, 1003 49, 1011 108
Summary of the method: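 Mice dosed with a single i.v. bolus (qd x 1) at each compound's MTD, formulated in 5% ethanol, 5% Cremophor, 90% isotonic saline. Study ended Day 60; complete response = tumor not palpable at study end.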

SKMES lung carcinoma = test: In vivo evaluation of oral administration against SKMES human lung carcinoma xenograft (Example 21); conditions: number of mice, single oral bolus Day 1, mg/kg: Taxol 40, 0687 228, 0503 73, 6 mice/group
Experimental: Female Nu/Nu mice (6-8 weeks of age; implanted with 1 mm^3 SKMES lung carcinoma fragments in the flank) were sorted into treatment groups of six mice each. […] Treatments were administered as a single oral bolus on Day 1, and the study was terminated on Day 60.
A complete response is obtained if the tumor is not palpable at the end of the study.
The total response rate is defined as the percentage of evaluable animals (excluding deaths due to procedure or toxicity) in a group that experience complete or partial responses at the termination of the study.

Compound | % Reduction (Monocytes) (blood cell populations; single oral bolus) | % Reduction (Neutrophils) (blood cell populations; single oral bolus) | Monocytes (K/µL) (blood cell populations) | Neutrophils (K/µL) (blood cell populations) | Maximum Weight Loss (Day) (blood cell populations) | complete tumor regressions ([1]; MX-1, single oral bolus Day 1) | Toxic Deaths ([1]; single oral bolus Day 1) | Complete Response ([1]; single oral bolus Day 1) | Partial Response ([1]; single oral bolus Day 1) | Stable Disease ([1]; single oral bolus Day 1) | % Reduction (Weight) [1] | IC50 (HCT116) | also measured
CCC(=O)O[C@H]1C(=O)[C@@]2(C)[C@H]([C@H](OC(=O)c3ccccc3)[C@]3(O)C[C@H](OC(=O)[C@H](O)[C@@H](NC(=O)OC(C)(C)C)c4cccs4)C(C)=C1C3(C)C)[C@]1(OC(C)=O)CO[C@@H]1C[C@@H]2O [Compound 0550] | 80.2% | 95.9% | 0.019 K/µL | 0.037 K/µL | -16.1% (5) | six | 0 | 6 | 0 | 0 | 100.0% | < 10 nM | neutrophil reduction (blood cell populations; MX-1 study, single oral bolus, day 4): 95.9%; body weight loss (blood cell populations; MX-1 study, single oral bolus, day 5): 16.1%
CCC(=O)O[C@H]1C(=O)[C@@]2(C)[C@H]([C@H](OC(=O)c3ccccc3)[C@]3(O)C[C@H](OC(=O)[C@H](O)[C@@H](NC(=O)OC(C)(C)C)c4ccccc4)C(C)=C1C3(C)C)[C@]1(OC(C)=O)CO[C@@H]1C[C@@H]2O [Compound 0611] | 56.3% | 93.7% | 0.042 K/µL | 0.057 K/µL | -15.0% (5) | four | 1^a | 4 | 0 | 0 | 100.0% | < 10 nM | –
CCC(=O)O[C@H]1C(=O)[C@@]2(C)[C@H]([C@H](OC(=O)c3ccccc3)[C@]3(O)C[C@H](OC(=O)[C@H](O)[C@@H](NC(=O)c4ccccc4)c4cccs4)C(C)=C1C3(C)C)[C@]1(OC(C)=O)CO[C@@H]1C[C@@H]2O [Compound 0687] | – | – | – | – | – | – | – | – | – | – | – | – | Toxic Deaths (HCT116 carcinoma): 0; Toxic Deaths (A2780 ovarian carcinoma): 0; Toxic Deaths (MX-1 carcinoma): 1; Toxic Deaths (SKMES lung carcinoma): 1^a; Complete Response (SKMES lung carcinoma; Day 60): 4; Partial Response (SKMES lung carcinoma; Day 60): 1; Stable Disease (SKMES lung carcinoma; Day 60): 0
CCC(=O)O[C@H]1C(=O)[C@@]2(C)[C@H]([C@H](OC(=O)c3ccccc3)[C@]3(O)C[C@H](OC(=O)[C@H](O)[C@@H](NC(=O)c4ccccc4)c4ccccc4)C(C)=C1C3(C)C)[C@]1(OC(C)=O)CO[C@@H]1C[C@@H]2O [Compound 0748] | – | 70.5% | 0.117 K/µL | 0.269 K/µL | -4.6% (5) | – | 0 | 0 | 0 | 1 | 69.1% | < 10 nM | antitumor activity ([1]; MX-1, single oral bolus Day 1): significant survival extensions compared to vehicle control mice
